In US20070218456A1, “CELLULAR ASSAYS FOR SIGNALING RECEPTORS” (INVITROGEN CORPORATION, priority 2006, published 2007):
Like-named read-outs stand apart in the source and are kept apart here.

Columns and labels:
GPR23 [1] = experiment: Perkin Elmer LANCE cAMP assay on T-REx-GPR23-CHO-K1 clones; format: cell-based, human; settings: un-induced, read-out: LPA EC50 (cAMP)
Method: (§1) Two inducible T-RExTM-GPR23-CHO-K1 clones and a parental control (T-RExTM-CHO-K1) were tested using the Perkin Elmer LANCE cAMP assay. The cells were serum starved and induced in growth medium +/-1 μg/ml tetracycline +100 ng/ml pertussis toxin without FBS for 24 hrs prior to the assay. The cells were then harvested using […] assayed for LPA responsiveness using the Perkin Elmer Lance assay according to the manufacture's instructions.

Jurkat cells = experiment: Transient transfection assay, NFAT-bla and CRE-bla Jurkat, response to LPA; format: cell-based; settings: 10 μM LPA
Excerpt: (§2) To begin development of a GPR23 assay in GeneBLAzer® CellSensor™ cell lines (Invitrogen), GPR23 was first tested in a transient transfection assay in the NFAT-bla HEK (Catalog# K1179, Invitrogen), the CRE-bla HEK (Catalog# K1112, Invitrogen), the NFAT-bla CHO-K1 (Catalog# K1078, Invitrogen), the CRE-bla CHO-K1 (Catalog# K1129, Invitrogen), the NFAT-bla Jurkat CellSensor™ cell lines (Catalog# K1077, Invitrogen) and the CRE-bla Jurkat CellSensor™ cell lines (Catalog# K1134, Invitrogen). The hGPR23 expression plasmid was transfected into the cell lines. Lipofectamine 2000 (Invitrogen) was used at a ratio of 0.4 ug of DNA per every uL of Lipofectamine 2000 following manufacturer's directions. After 48 hours the cells were assayed for a response to 10 μM LPA.

[2] = system: NFAT and CRE CHO-K1 cell lines; experiment: Transient transfection assay, NFAT-bla and CRE-bla CHO-K1, response to LPA; format: cell-based, Chinese hamster; settings: 10 μM LPA; absence of transfected GPR23
Excerpt: as §2

T-REx™-CHO-K1 = experiment: Perkin Elmer LANCE cAMP assay on parental T-REx-CHO-K1; format: cell-based, Chinese hamster; settings: read-out: LPA EC50 (cAMP)
Method: as §1

GPR23 [3] = target: T1, GPR23 (Homo sapiens, UniProt Q99677); experiment: Perkin Elmer LANCE cAMP assay on T-REx-GPR23-CHO-K1 clones; format: cell-based; design: expressed in transfected cells; host or cells: CHO-K1 with tet repressor (T-REx); clones E1 and H6, later CRE-bla subclone H6-E2; settings: read-out: LPA EC50 (cAMP)
Method: as §1

GPR23 [4] = experiment: LPA responsiveness of T-REx-GPR23 CRE-bla-CHO-K1 clone H6-E2; format: cell-based, human; settings: un-induced cells
Method: (§3) The cells were plated at 20,000 cells per well in a 384 well black walled clear bottom tissue culture assay plate in complete media (DMEM+10% FBS). The plates were then placed at 37° C. 5% CO2 for 6 hrs to allow the cells to attach to the assay plate. The complete media was then removed from the plate and replaced with assay media (DMEM+0.1% BSA) containing 100 ng/ml pertussis toxin and 0.5% DMSO, with or without 10 μg/ml doxycycline. The plates were placed at 37° C. 5% CO2 for 16 hrs to allow the induced expression of the GPR23 receptor. The cells were then stimulated for five hours with a four fold dilution series of LPA starting at 1 μM. The cells were then loaded with LiveBLAzer™-FRET B/G substrate (2 μM) containing solution D for 2 hrs.

hGPR23 = experiment: LPA dose response on hGPR23-CRE-bla CHO-K1 selected pool; format: cell-based, human; settings: 5 hrs stimulation
Excerpt: An attempt was made to develop a GPR23 assay by stably expressing a human GPR23 (hGPR23) in a CRE-bla CHO-K1 cell line. The CRE-bla CHO-K1 cell line has a non-GPR23 specific endogenous response to LPA (see Example 18), but by adding the human GPR23 to the cells it could have been possible to increase the LPA responsiveness of these cells or create a constitutively active cell line that could be used to screen for inverse agonists of the hGPR23 receptor. The hGPR23 expression plasmid was transfected into the CRE-bla CHO-K1 cell line. Lipofectamine 2000 (Invitrogen) was used at a ratio of 0.4 ug of DNA per every uL of Lipofectamine 2000 following manufacturer's directions.
(§4) A stable pool was selected using Zeocin. LPA dose response on the hGPR23-CRE-bla CHO-K1 selected pool and CRE-bla CHO-K1 cell line was performed. The cells were plated at 50,000 cells per well in a 96 well assay plate in OptiMEM+0.5% FBS and placed at 37° C. 5% CO2 overnight. The cells were then stimulated with a four fold dilution series of LPA in DMEM+0.1% BSA for 5 hrs. and loaded with substrate for 2 hrs.

CRE-bla CHO-K1 cell line = experiment: LPA dose response on CRE-bla CHO-K1 cell line; format: cell-based, Chinese hamster; settings: CRE-bla CHO cells; 5 hrs stimulation
Method: as §4

GPR23 [5] = target: T1, GPR23; experiment: LPA response of stably transfected GPR23-CRE-bla HEK pool; format: cell-based; design: expressed in transfected cells; host or cells: CellSensor CRE-bla HEK (Invitrogen K1112), stably selected pool
Method: Assay construction continued in the NFAT-bla and CRE-bla, HEK and Jurkat CellSensor™ cell lines. These cell lines were taken to the point of stably selected pools at which point they were tested for a response to LPA. Only the stably transfected GPR23-CRE-bla HEK pool gave a response to LPA. The response was <1.5 fold but reproducible.

HEK cells = experiment: Transient transfection assay, NFAT-bla and CRE-bla HEK, response to LPA; format: cell-based, human; settings: 10 μM LPA
Excerpt: as §2

GPR23 [6] = target: T1, GPR23; experiment: LPA responsiveness of T-REx-GPR23 CRE-bla-CHO-K1 clone H6-E2; format: cell-based; design: expressed in transfected cells; host or cells: CHO-K1 with tet repressor (T-REx); clones E1 and H6, later CRE-bla subclone H6-E2
Method: as §3

T1 sequence (Q99677 whole entry): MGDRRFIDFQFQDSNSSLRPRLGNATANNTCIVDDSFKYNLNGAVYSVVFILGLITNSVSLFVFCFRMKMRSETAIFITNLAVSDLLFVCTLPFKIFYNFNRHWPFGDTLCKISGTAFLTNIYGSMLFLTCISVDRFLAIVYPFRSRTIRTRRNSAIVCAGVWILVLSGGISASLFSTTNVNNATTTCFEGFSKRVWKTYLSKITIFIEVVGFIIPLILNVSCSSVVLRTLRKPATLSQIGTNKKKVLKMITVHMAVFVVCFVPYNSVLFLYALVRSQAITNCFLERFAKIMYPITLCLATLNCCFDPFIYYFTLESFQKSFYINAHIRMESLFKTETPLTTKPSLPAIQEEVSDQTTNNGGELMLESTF

EC50 (GPR23 [1]; E1 clone): 2 µM
EC50 (GPR23 [1]; H6 clone): 1.5 µM
EC50 (GPR23 [3]; E1 clone induced (1 μg/ml tetracycline)): 0.0303 µM
EC50 (GPR23 [3]; H6 induced (1 μg/ml tetracycline)): 0.0138 µM
EC50 (hGPR23): 0.258 µM
response to LPA (GPR23 [5]): < 1.5 fold
response of the cells to LPA (GPR23 [6]; induced cells): 2.3 fold
EC50 (GPR23 [6]; induced cells (10 μg/ml doxycycline, 16 hrs), LPA five hours): 0.0023 µM
Substance: 1 or 2-acyl-sn-glycero-3-phosphate [LPA]
response to LPA (Jurkat cells; GPR23 transfected cells): no response
response to LPA (Jurkat cells; endogenous (untransfected)): no endogenous response
response to LPA [2]: positive response
EC50 (T-REx™-CHO-K1; parent induced (1 μg/ml tetracycline)): 0.915 µM
EC50 (T-REx™-CHO-K1; parent, un-induced): 5 µM
response of the cells to LPA (GPR23 [4]): 9 fold
EC50 (CRE-bla CHO-K1 cell line): 0.239 µM
response to LPA (HEK cells; GPR23 transfected CRE-bla HEK cell line): only a small response
response to LPA (HEK cells; endogenous (untransfected)): no endogenous response
